Experimental data taken from paper PMC7413254 (Nature Communications, 2020).

Tested on: PfCRT
Assay: Potential co-substrates tested for influx of VF-6 via PfCRT into the oocyte
Assay type: cell-based, Plasmodium falciparum
Design: key: X: Compounds that have been tested as potential co-substrates but are not required for influx of VF-6 via PfCRT into the oocyte

Row | SMILES | Tested as potential co-substrate but not required for influx of VF-6 via PfCRT into the oocyte
1 | C[C@H](N)C(=O)O [L-alanine] | X
2 | N=C(N)NCCC[C@H](N)C(=O)O [L-arginine] | X
3 | NC(=O)C[C@H](N)C(=O)O [L-asparagine] | X
4 | N[C@@H](CS)C(=O)O [L-cysteine] | X
5 | N[C@@H](CCC(=O)O)C(=O)O [L-glutamic acid] | X
6 | NC(=O)CC[C@H](N)C(=O)O [L-glutamine] | X
7 | CC[C@H](C)[C@H](N)C(=O)O [L-isoleucine] | X
8 | CC(C)C[C@H](N)C(=O)O [L-leucine] | X
9 | NCCCC[C@H](N)C(=O)O [L-lysine] | X
10 | CSCC[C@H](N)C(=O)O [L-methionine] | X
11 | N[C@@H](Cc1ccccc1)C(=O)O [L-phenylalanine] | X
